Reference: patent US20260199484A1, “PROTAC DEGRADERS OF MLLT1 AND/OR MLLT3” (DARK BLUE THERAPEUTICS LTD, priority 2024, published 2026)

Key:
MLLT1 = molecular target: T1, MLLT1 (Homo sapiens, UniProt Q03111); test: MLLT1 degradation assay in MV4-11 cells (JESS, 24 h); type: cell-based; parameters: endogenous in cells; host or cells: MV4-11 (ATCC CRL-9591); conditions: vs DMSO control
T1 sequence (Q03111 1-559): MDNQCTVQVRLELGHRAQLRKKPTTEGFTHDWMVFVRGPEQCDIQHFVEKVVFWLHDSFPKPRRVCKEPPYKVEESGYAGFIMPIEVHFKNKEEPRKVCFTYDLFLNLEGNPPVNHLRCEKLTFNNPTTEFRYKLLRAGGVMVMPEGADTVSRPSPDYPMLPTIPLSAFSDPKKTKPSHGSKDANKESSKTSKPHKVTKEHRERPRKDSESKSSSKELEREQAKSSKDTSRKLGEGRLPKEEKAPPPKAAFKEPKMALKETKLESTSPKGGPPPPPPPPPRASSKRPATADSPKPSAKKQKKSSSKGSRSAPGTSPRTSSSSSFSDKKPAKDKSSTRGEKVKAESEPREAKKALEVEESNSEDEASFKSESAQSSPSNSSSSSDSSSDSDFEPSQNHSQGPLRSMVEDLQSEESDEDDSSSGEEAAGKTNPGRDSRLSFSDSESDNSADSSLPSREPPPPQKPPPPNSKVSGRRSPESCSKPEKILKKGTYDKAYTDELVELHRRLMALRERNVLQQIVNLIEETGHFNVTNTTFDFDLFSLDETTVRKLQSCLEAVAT
Procedure: MLLT1 degradation efficacy of compounds was tested in an automated chemiluminescent detection system (JESS, Cat #004-650). MV4-11 (#CRL-9591, ATCC) cells were seeded at a density of 1.2 million cells/well in a non-treated 6-well cell culture plate in 2.4 mL of complete medium (IMDM+10% FBS+1× Penicillin-Streptomycin). 10 mM DMSO stocks were prepared, and cells were treated with three concentrations of test compounds viz. 1000, 100 and 10 nM at a final DMSO concentration of 0.1% and incubated for 24 h at 37° C., 5% CO2. Post incubation, cells were centrifuged, washed with HBSS and lysed in 70 μL of RIPA buffer supplemented with Protease inhibitors (sc-24948; Santa Cruz). Subsequently, protein estimation was done using BCA protein assay kit (23225; Pierce). 4 ug protein lysate (4 uL of 1 ug/uL lysate) was loaded into each well of the JESS cartridge (SM-W001; Bio-techne) and the JESS run was performed using 1:900 dilution of anti-human MLLT1 antibody (14893; Cell signaling technology) and 1:1200 dilution of anti-human GAPDH antibody (2118; Cell signaling technology) with anti-rabbit secondary detection module (DM-001; Bio-Techne). Post run, data were analysed using “Compass for SW” software for chemiluminescent detection. The peak area for each band was used for the calculation of MLLT1 degradation with respect to DMSO control. Data is shown as “MLLT1% degradation”. • Category A: A≥75% degradation • Category B: 50%≤B<75% degradation • Category C: 25%≤C<50% degradation • Category D: D<25% degradation

MV4-11 cells = test: MV4-11 cellular proliferative assay, Assay Format A (CellTiter-Glo, 120 h); type: cell-based; conditions: Homo sapiens, Assay format A, 120 h, read-out: IC50 (MV4-11 cellular proliferative assay)
Procedure: An MV4-11 proliferation assay was used to test the ability of compounds to reduce cell viability. MV4-11 cells (ATCC #CRL9591) were grown in IMDM medium (11510596, Gibco) supplemented with 10% fetal bovine serum (F7524, Gibco) and 1% Penicillin/Streptomycin (15140-122, Gibco) at 37° C. with 5% CO2. Cells were seeded in 384-well Elplasia plates (4447, Corning) at a density of 50 cells/well and treated with vehicle (DMSO) or compounds (10 serial semi-log dilutions, 30 μM as top concentration).
After 120 hours of treatment, cells were incubated for 10 min at RT with the CellTiter-Glo (CTG) reagent (G7571, Promega). Measurement of the luminescence signal was performed on a microplate reader (Ensight, PerkinElmer). CTG reagent measures the amount of ATP, which is directly proportional to the number of cells, to determine the number of viable cells in culture.
The data were analysed as follows:
[formula] • where x is the measured raw signal value of a well, (cr) is the median of the measured signal values for the Central Reference (DMSO) wells on a plate, (sr) is the median of the measured signal values for the Scale Reference (reference compound) wells on a plate.
[formula] • where the experimental set-up assumes the Hill parameters in certain ranges: S0~Central Reference (CR) from normalization (=Bottom), Sinf~Scale Reference (SR) from normalization (=Top), nHill ~1, AC50~within the measured concentration range.

SMILES | MLLT1% Degradation @ 0.01 μM (MLLT1) | MLLT1% Degradation @ 0.1 μM (MLLT1) | MLLT1% Degradation @ 1 μM (MLLT1) | IC50 (MV4-11 cells)
Cc1nn(CCCCCC#Cc2cccc3c2CN(C2CCC(=O)NC2=O)C3=O)c2cc(C(=O)Nc3cc4[nH]c([C@H]5CCCN5C)cc4cn3)ccc12 (stereo partly drawn) [Example 30, 1-(7-(2-(2,6-dioxopiperidin-3-yl)-1-oxoisoindolin-4-yl)hept-6-yn-1-yl)-3-methyl-N-(2-((R)-1-methylpyrrolidin-2-yl)-1H-pyrrolo [3,2-c]pyridin-6-yl)-1H-indazole-6-carboxamide] | A (Category A: A≥75% degradation) | A (Category A: A≥75% degradation) | A (Category A: A≥75% degradation) | < 100 nM
Cc1nn(CCCCCCCCNc2cccc3c2C(=O)N(C2CCC(=O)NC2=O)C3=O)c2cc(C(=O)Nc3cc4[nH]c([C@H]5CCCN5C)c(Cl)c4cn3)ccc12 (stereo partly drawn) [Example 18, N-(3-chloro-2-((R)-1-methylpyrrolidin-2-yl)-1H-pyrrolo[3,2-c]pyridin-6-yl)-1-(8-((2-(2,6-dioxopiperidin-3-yl)-1,3-dioxoisoindolin-4-yl)amino)octyl)-3-methyl-1H-indazole-6-carboxamide] | A (Category A: A≥75% degradation) | A (Category A: A≥75% degradation) | A (Category A: A≥75% degradation) | < 100 nM
Cc1nn(CCCOCC#Cc2cccc3c2CN(C2CCC(=O)NC2=O)C3=O)c2cc(C(=O)Nc3cc4[nH]c([C@H]5CCCN5C)cc4cn3)ccc12 (stereo partly drawn) [Example 31, 1-(3-((3-(2-(2,6-dioxopiperidin-3-yl)-1-oxoisoindolin-4-yl)prop-2-yn-1-yl)oxy)propyl)-3-methyl-N-(2-((R)-1-methylpyrrolidin-2-yl)-1H-pyrrolo[3,2-c]pyridin-6-yl)-1H-indazole-6-carboxamide] | C (Category C: 25%≤C<50% degradation) | B (Category B: 50%≤B<75% degradation) | A (Category A: A≥75% degradation) | < 100 nM
[2H]C([2H])([2H])N1CCC[C@@H]1c1cc2cnc(NC(=O)c3ccc4c(C)nn(CCCCCCCC#Cc5cccc6c5CN(C5CCC(=O)NC5=O)C6=O)c4c3)cc2[nH]1 (stereo partly drawn) [Example 44, 1-(9-(2-(2,6-dioxopiperidin-3-yl)-1-oxoisoindolin-4-yl)non-8-yn-1-yl)-3-methyl-N-(2-((R)-1-(methyl-d3)pyrrolidin-2-yl)-1H-pyrrolo[3,2-c]pyridin-6-yl)-1H-indazole-6-carboxamide] | B (Category B: 50%≤B<75% degradation) | A (Category A: A≥75% degradation) | A (Category A: A≥75% degradation) | < 100 nM
Cc1nn(CCCCCN2CCN(c3cccc4c3C(=O)N(C3CCC(=O)NC3=O)C4=O)CC2)c2cc(C(=O)Nc3cc4[nH]c([C@H]5CCCN5C)cc4cn3)ccc12 (stereo partly drawn) [Example 47, 1-(5-(4-(2-(2,6-dioxopiperidin-3-yl)-1,3-dioxoisoindolin-4-yl)piperazin-1-yl)pentyl)-3-methyl-N-(2-((R)-1-methylpyrrolidin-2-yl)-1H-pyrrolo[3,2-c]pyridin-6-yl)-1H-indazole-6-carboxamide] | D (Category D: D<25% degradation) | D (Category D: D<25% degradation) | B (Category B: 50%≤B<75% degradation) | < 100 nM
Cc1nn(CCCCCCCCNc2cccc3c2C(=O)N(C2CCC(=O)NC2=O)C3=O)c2cc(C(=O)Nc3cc4[nH]c([C@H]5CCCN5C)cc4cn3)ccc12 (stereo partly drawn) [Example 3, 1-(8-{[2-(2,6-dioxopiperidin-3-yl)-1,3-dioxoisoindol-4-yl]amino}octyl)-3-methyl-N-{2-[(2R)-1-methylpyrrolidin-2-yl]-1H-pyrrolo[3,2-c]pyridin-6-yl}indazole-6-carboxamide] | B (Category B: 50%≤B<75% degradation) | A (Category A: A≥75% degradation) | A (Category A: A≥75% degradation) | < 100 nM
Cc1nn(CCCC2CCN(c3cccc4c3C(=O)N(C3CCC(=O)NC3=O)C4=O)CC2)c2cc(C(=O)Nc3cc4[nH]c([C@H]5CCCN5C)cc4cn3)ccc12 (stereo partly drawn) [Example 27, 1-(3-(1-(2-(2,6-dioxopiperidin-3-yl)-1,3-dioxoisoindolin-4-yl)piperidin-4-yl)propyl)-3-methyl-N-(2-((R)-1-methylpyrrolidin-2-yl)-1H-pyrrolo[3,2-c]pyridin-6-yl)-1H-indazole-6-carboxamide] | A (Category A: A≥75% degradation) | A (Category A: A≥75% degradation) | A (Category A: A≥75% degradation) | < 100 nM
CN1CCC[C@@H]1c1cc2cnc(NC(=O)c3ccc4c(cnn4CCCCCCCCNc4cccc5c4C(=O)N(C4CCC(=O)NC4=O)C5=O)c3)cc2[nH]1 (stereo partly drawn) [Example 36, 1-(8-((2-(2,6-dioxopiperidin-3-yl)-1,3-dioxoisoindolin-4-yl)amino)octyl)-N-(2-((R)-1-methylpyrrolidin-2-yl)-1H-pyrrolo[3,2-c]pyridin-6-yl)-1H-indazole-5-carboxamide] | A (Category A: A≥75% degradation) | A (Category A: A≥75% degradation) | A (Category A: A≥75% degradation) | < 100 nM
Cc1nn(CCCCCCCCOc2cccc3c2C(=O)N(C2CCC(=O)NC2=O)C3=O)c2cc(C(=O)Nc3cc4[nH]c([C@H]5CCCN5C)cc4cn3)ccc12 (stereo partly drawn) [Example 12, 1-(8-((2-(2,6-dioxopiperidin-3-yl)-1,3-dioxoisoindolin-4-yl)oxy)octyl)-3-methyl-N-(2-((R)-1-methylpyrrolidin-2-yl)-1H-pyrrolo[3,2-c]pyridin-6-yl)-1H-indazole-6-carboxamide] |  |  |  | < 100 nM
Cc1nn(CCCCCCCCNc2ccc3c(c2)C(=O)N(C2CCC(=O)NC2=O)C3=O)c2cc(C(=O)Nc3cc4[nH]c([C@H]5CCCN5C)cc4cn3)ccc12 (stereo partly drawn) [Example 14, 1-(8-{[2-(2,6-dioxopiperidin-3-yl)-1,3-dioxoisoindol-5-yl]amino}octyl)-3-methyl-N-{2-[(2R)-1-methylpyrrolidin-2-yl]-1H-pyrrolo[3,2-c]pyridin-6-yl}indazole-6-carboxamide] |  |  |  | < 100 nM
Cc1nn(C2CCN(CCCNc3cccc4c3C(=O)N(C3CCC(=O)NC3=O)C4=O)CC2)c2cc(C(=O)Nc3cc4[nH]c([C@H]5CCCN5C)cc4cn3)ccc12 (stereo partly drawn) [Example 7, 1-[1-(3-{[2-(2,6-dioxopiperidin-3-yl)-1,3-dioxoisoindol-4-yl]amino}propyl)piperidin-4-yl]-3-methyl-N-{2-[(2R)-1-methylpyrrolidin-2-yl]-1H-pyrrolo[3,2-c]pyridin-6-yl}indazole-6-carboxamide] |  |  |  | < 100 nM
Cc1nn(CCCCCCCCNc2cccc3c2CN(C2CCC(=O)NC2=O)C3=O)c2cc(C(=O)Nc3cc4[nH]c([C@@H]5CCCN5C)cc4cn3)ccc12 (stereo partly drawn) [Example 17, 1-(8-{[2-(2,6-dioxopiperidin-3-yl)-1-oxo-3H-isoindol-4-yl]amino}octyl)-3-methyl-N-{2-[(2S)-1-methylpyrrolidin-2-yl]-1H-pyrrolo[3,2-c]pyridin-6-yl}indazole-6-carboxamide] |  |  |  | < 100 nM
